Measured values: patent US8163909B2, “Substituted hydroxyethyl amine compounds as beta-secretase modulators and methods of use” (Amgen Inc., priority 2007, dated 2012)
Read-outs that look alike come from different tables or passages of the source.

Tests used:
[1] = molecular target: Beta Secretase enzyme (BACE) (Homo sapiens, UniProt P56817); test: In vitro enzymatic BACE FRET (fluorescence resonance energy transfer) assay; assay type: biochemical;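 further: fluorescence read after 1 h with 50 nM quenched peptide substrate spanning the BACE cleavage site, in pH 4.2 acetate buffer containing 10% DMSO and nonionic detergent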
Beta Secretase enzyme (BACE), sequence (P56817 46-501): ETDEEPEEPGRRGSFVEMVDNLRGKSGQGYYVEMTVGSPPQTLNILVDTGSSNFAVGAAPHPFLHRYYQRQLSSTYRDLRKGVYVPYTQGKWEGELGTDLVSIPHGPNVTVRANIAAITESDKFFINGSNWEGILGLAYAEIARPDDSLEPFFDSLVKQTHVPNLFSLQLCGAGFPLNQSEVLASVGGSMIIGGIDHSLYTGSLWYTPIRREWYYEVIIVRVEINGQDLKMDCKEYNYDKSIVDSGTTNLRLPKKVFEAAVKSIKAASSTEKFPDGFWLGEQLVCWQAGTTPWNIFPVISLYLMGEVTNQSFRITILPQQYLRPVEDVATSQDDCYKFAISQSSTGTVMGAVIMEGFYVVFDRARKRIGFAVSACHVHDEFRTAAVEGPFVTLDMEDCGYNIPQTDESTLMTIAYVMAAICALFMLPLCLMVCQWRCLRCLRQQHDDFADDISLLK

[2] = molecular target: CYP3A4 (CYP3A) (Homo sapiens, UniProt P08684); test: in vitro; settings: microsomes, pH 7.4;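 further: inhibition of CYP3A-mediated 1-hydroxymidazolam formation after 10 min incubation with NADPH, quantified by HPLC MS relative to metabolite produced without test compound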
CYP3A4 (CYP3A), sequence (P08684 2-503): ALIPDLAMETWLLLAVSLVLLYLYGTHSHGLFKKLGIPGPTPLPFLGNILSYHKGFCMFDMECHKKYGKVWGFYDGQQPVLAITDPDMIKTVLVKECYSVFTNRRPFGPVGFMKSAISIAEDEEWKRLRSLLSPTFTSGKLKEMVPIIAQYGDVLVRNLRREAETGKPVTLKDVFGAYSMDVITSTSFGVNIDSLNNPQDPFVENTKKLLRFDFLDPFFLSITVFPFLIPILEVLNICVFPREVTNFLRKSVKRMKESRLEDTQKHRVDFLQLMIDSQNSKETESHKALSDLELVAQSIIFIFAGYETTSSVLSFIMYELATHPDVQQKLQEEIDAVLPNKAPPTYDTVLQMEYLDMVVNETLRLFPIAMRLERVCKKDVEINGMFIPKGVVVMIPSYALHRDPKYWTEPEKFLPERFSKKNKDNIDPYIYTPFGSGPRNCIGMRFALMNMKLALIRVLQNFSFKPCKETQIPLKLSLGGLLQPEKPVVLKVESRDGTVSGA

[3] = tested on: Aβ40 in conditioned medium of cells stably expressing Amyloid Precursor Protein (APP); test: In vitro BACE cell-based assay (Aβ40 in conditioned medium, sandwich ELISA);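 further: compounds added as a dilution series, secreted peptide quantified by europium time-resolved fluorescence readout, potency fitted from percent of control versus compound concentration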
[4] = molecular target: CYP2D6 (Homo sapiens, UniProt P10635); test: CYP2D6 inhibition assay (bufuralol, pooled human liver microsomes)
CYP2D6, sequence (P10635 whole entry): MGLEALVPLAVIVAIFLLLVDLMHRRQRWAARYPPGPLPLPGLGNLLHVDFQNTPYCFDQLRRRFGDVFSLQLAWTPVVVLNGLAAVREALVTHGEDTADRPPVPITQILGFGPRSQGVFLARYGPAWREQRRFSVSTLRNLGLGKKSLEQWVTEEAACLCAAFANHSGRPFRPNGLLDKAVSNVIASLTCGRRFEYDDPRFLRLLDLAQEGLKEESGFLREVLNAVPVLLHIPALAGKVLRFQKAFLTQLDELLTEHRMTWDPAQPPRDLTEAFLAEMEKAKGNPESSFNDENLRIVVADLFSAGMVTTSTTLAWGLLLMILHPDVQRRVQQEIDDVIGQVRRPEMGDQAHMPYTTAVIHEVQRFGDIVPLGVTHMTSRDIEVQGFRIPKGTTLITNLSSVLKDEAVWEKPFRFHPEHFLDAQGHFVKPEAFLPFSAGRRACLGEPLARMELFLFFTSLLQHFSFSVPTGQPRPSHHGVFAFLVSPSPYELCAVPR

[5] = Microsomal stability assay, rat liver microsomes;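 further: rat liver microsomes (0.25 mg/mL) with about 1 µM compound plus 1 mM NADPH, pH 7.4, 37 °C for 30 min, parent left measured by LC-MS/MS against 0 min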
[6] = Microsomal stability assay, human liver microsomes;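 further: pooled human liver microsomes at 0.25 mg/mL with 1 µM compound and NADPH at 37 °C, pH 7.4, for 30 min, unchanged parent quantified by LC-MS/MS against the 0 min sample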
[7] = BACE enzyme assay, read-out: BACE1 FRET assay
[8] = Homo sapiens, HEK293, HEK cells, read-out: HEK cell assay
[9] = 2D6 IC50 (uM), CYP enzyme inhibition
[10] = Table 2, read-out: BACE1 FRET assay
[11] = Homo sapiens, HEK293, Table 2, HEK cells, read-out: HEK cell assay
[12] = 2D6 IC50, CYP enzyme inhibition
[13] = BACE enzyme assay, IC50's in uM, read-out: BACE1 FRET assay
[14] = Homo sapiens, HEK293, HEK cell-based assay, IC50's in uM, read-out: HEK cell assay
[15] = BACE enzyme assay IC50, read-out: BACE1 FRET assay
[16] = Homo sapiens, HEK293, HEK cell-based assay IC50, read-out: HEK cell assay
[17] = 2D6 IC50 (uM), CYP2D6 inhibition

Row | Structure (SMILES) | IC50 [1, 7] | IC50 [2] | IC50 [4, 9] | RLM ([5]; rat liver microsomal data) | HLM ([6]; human liver microsomal data) | RLM ([5]; rat liver microsomes) | HLM ([6]; human liver microsomes) | other results
1 | CO[C@H](C)C(=O)N[C@@H](Cc1cccc(F)c1)[C@H](O)CN[C@H]1CC2(CCC2)Oc2c1cc(CC(C)(C)C)nc2-n1ccnc1 [compound 507] | 0.022 µM | 100 nM | 1.9 µM | 95 µL/min/mg | 14 µL/min/mg | – | – | IC50 [3, 8]: 0.057 µM
2 | CC(C)(C)Cc1cnc2c(c1)[C@@H](NC[C@@H](O)[C@H](Cc1cccc(C#N)c1)NC(=O)[C@H]1CCCO1)CC1(CC(F)(F)C1)O2 [compound 472] | – | 800 nM | – | 775 µL/min/mg | 736 µL/min/mg | – | – | IC50 [1, 10]: 0.005 µM; IC50 [3, 11]: 0.015 µM; IC50 [4, 12]: 7.1 µM
3 | CC(C)(C)Cc1cnc2c(c1)[C@@H](NC[C@@H](O)[C@H](Cc1ccc3c(c1)OCO3)NC(=O)CC1CCS(=O)(=O)C1)CC1(CCC1)O2 (stereo partly drawn) [compound 778] | – | 100 nM | 8.5 µM | 141 µL/min/mg | 62 µL/min/mg | – | – | IC50 [1, 13]: 0.048 µM; IC50 [3, 14]: 0.05 µM
4 | COCC(=O)N[C@@H](Cc1ccc(F)c(F)c1)[C@H](O)CN[C@H]1CC(C)(C)Oc2ncc(CC(C)(C)C)cc21 [compound 676] | – | 2000 nM | – | – | – | 411 µL/min/mg | 463 µL/min/mg | IC50 [1, 15]: 0.01 µM; IC50 [3, 16]: 0.011 µM; IC50 [4, 17]: 2.9 µM
5 | Cc1ccccc1CN1CCO[C@@H](C(=O)N[C@@H](Cc2ccc(F)cc2)[C@H](O)CN[C@H]2CC3(CCC3)Oc3ncc(CC(C)(C)C)cc32)C1 [compound 692] | – | 200 nM | – | – | – | 590 µL/min/mg | 706 µL/min/mg | IC50 [1, 15]: 0.013 µM; IC50 [3, 16]: 0.024 µM; IC50 [4, 17]: 5.1 µM
6 | COCC(=O)N[C@@H](Cc1ccc2c(c1)OCO2)[C@H]1CN([C@H]2CC3(CCC3)Oc3ncc([C@H](F)C(C)(C)C)cc32)C(=O)O1 [compound 446] | – | 200 nM | – | 106 µL/min/mg | 150 µL/min/mg | – | – | IC50 [1, 10]: 6.32 µM; IC50 [3, 11]: > 10 µM; IC50 [4, 12]: 1.2 µM
7 | CO[C@H](C)C(=O)N[C@@H](Cc1ccc2c(c1)OCO2)[C@H](O)CN[C@H]1CC2(CCC2)Oc2ncc([C@H]3CC3(C)C)cc21 [compound 580] | – | 100 nM | – | – | – | 186 µL/min/mg | 42 µL/min/mg | IC50 ([1]; read-out: BACE1 FRET assay (IC50)): 0.357 µM; IC50 ([3]; Homo sapiens, HEK293, HEK cells, read-out: HEK cell assay (IC50)): 0.776 µM; IC50 ([4]; 2D6 IC50, CYP2D6 inhibition): 4.4 µM
8 | CC(C)OCC(=O)N[C@@H](Cc1ccc(F)cc1)[C@H](O)CN[C@H]1CC2(CCC2)Oc2ncc(CC(C)(C)C)cc21 [compound 565] | 0.049 µM | 600 nM | 23.8 µM | 829 µL/min/mg | 921 µL/min/mg | – | – | IC50 [3, 8]: 0.267 µM
9 | COCC(=O)N[C@@H](Cc1cc(F)cc(F)c1)[C@H](O)CN[C@H]1CC(C)(C)Oc2c1cc(CC(C)C)c1c2OCO1 [compound 748] | – | 100 nM | – | – | – | 179 µL/min/mg | 190 µL/min/mg | IC50 [1, 15]: 0.013 µM; IC50 [3, 16]: 0.126 µM; IC50 [4, 17]: 8.2 µM
10 | CCOCC(=O)N[C@@H](Cc1cccc(-c2ncco2)c1)[C@H](O)CN[C@H]1CC2(CCC2)Oc2ncc(CC(C)(C)C)cc21 [compound 901] | – | ≥ 27000 nM | – | 62 µL/min/mg | 74 µL/min/mg | – | – | IC50 [1, 13]: 0.01 µM; IC50 ([3]; Homo sapiens, HEK293, cell-based assay, HEK cells, IC50's in uM, read-out: HEK cell assay): 0.032 µM; IC50 [4, 12]: 24.8 µM
11 | COCC(=O)N[C@@H](Cc1ccc2c(c1)OCO2)[C@H](O)CN[C@H]1CC2(CCC2)Oc2ccc(C[C@@H](C)F)cc21 [compound 498] | 0.268 µM | 500 nM | 0.7 µM | 206 µL/min/mg | 119 µL/min/mg | – | – | IC50 ([3]; HEK cells, read-out: HEK cell assay): 0.377 µM
12 | CO[C@H](C)C(=O)N[C@@H](Cc1ccc(F)c(-c2nccs2)c1)[C@H](O)CN[C@H]1CC2(CCC2)Oc2ncc(CC(C)C)cc21 [compound 768, (2R)-N-((1S,2R)-1-(4-fluoro-3-(1,3-thiazol-2-yl)benzyl)-2-hydroxy-3-(((4′S)-6′-(2-methylpropyl)-3′,4′-dihydrospiro[cyclobutane-1,2′-pyrano[2,3-b]pyridin]-4′-yl)amino)propyl)-2-methoxypropanamide] | – | 100 nM | 0.4 µM | 70 µL/min/mg | 39 µL/min/mg | – | – | IC50 [1, 13]: 0.022 µM; IC50 [3, 14]: 0.105 µM
13 | COCC(=O)N[C@@H](Cc1ccc2c(c1)OCO2)[C@H](O)CN[C@H]1CC2(CCC2)Oc2ccc(C[C@H](C)F)cc21 [compound 557] | 3.79 µM | 300 nM | 0.5 µM | 344 µL/min/mg | 193 µL/min/mg | – | – | IC50 [3, 8]: > 10 µM
